# Tested on: peripheral blood monocytes
# Test: uptake of fluorochrome-conjugated gonadotropins by blood-derived leukocytes (FACS)
# Assay type: cell-based, human
# Details: FIG. 1B
# Procedure: Blood-derived monocytes are enriched by density gradient centrifugation. […] Cells are labelled with fluorochrome-conjugated monocyte marker (e.g. anti-CD14-PerCP antibody, as described above) and analyzed with multi-colour flow cytometry (FACS).
# Unspecific binding (background) is estimated as MFI for cells incubated on ice
# Cells were analyzed with flow cytometry (FACS) with simultaneous detection of multiple cell lineage markers.
substance,measurement,value
cytochalasin,effect on gonadotropin binding to monocytes,inhibited
